Patent US20250052985A1, “SYSTEM AND METHOD FOR QUANTITATIVE PHASE IMAGING FOR MULTI-PARAMETRIC SCREENING OF TUMOR THERAPY RESPONSE” (UNIVERSITY OF UTAH RESEARCH FOUNDATION, priority 2023, published 2025)
Values joined by “and” are separate entries in the source; they are usually repeats but may differ in a detail not shown here. Equal values may be shown once. Read-outs that look alike come from different tables or passages of the source.

Tests used:
MCF-7 cells [1] = test: CellTiter-Glo (CTG) ATP viability assay, MCF-7; type: cell-based; conditions: for EC50: Homo sapiens
How it was run: (§1)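 Cell viability was read as ATP content by CellTiter-Glo luminescence after replacing media with reagent, shaking 20 min and resting 10 min. Signal was normalized to solvent control, and a 4-parameter Hill fit to the dose response gave EC50 and depth of response.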

MDA-MB-231 cells = test: Quantitative phase imaging (QPI) growth response, MDA-MB-231; type: cell-based; design: DoR QPI: scale not given here; ToR 20 μM: unit not given here; conditions: for Max Asymptote / Min Asymptote: MDA-MB-231, 4-parameter Hill fit of mean SGR vs concentration, one line per replicate; for EC50: Homo sapiens, MDA-MB-231, MDA-MB-231 cell line
How it was run: (§2)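 Breast cancer lines imaged noninvasively by DPC-based quantitative phase imaging across 6-point dose responses in triplicate with solvent controls, for 24 h or 72 h after 3 h equilibration, then CellTiter-Glo ATP viability. Mean specific growth rate fitted to a 4-parameter Hill curve for EC50, with an F-test (p<0.01) against a flat line to determine response.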

BT-474 cells [2] = test: CellTiter-Glo (CTG) ATP viability assay, BT-474; type: cell-based; conditions: for Min Asymptote: BT-474, Hill fit of luminescence normalized to solvent control, one line per replicate; for EC50: Homo sapiens
How it was run: as §1

BT-474 cells [3] = test: cells; conditions: for Max Asymptote / Min Asymptote: BT-474, 4-parameter Hill fit of mean SGR vs concentration, one line per replicate; for Hill Slope: BT-474, Hill fit; for EC50: Homo sapiens
How it was run: as §2

MCF-7 cells [4] = test: cells; conditions: for Hill Slope: MCF-7, Hill fit; for EC50: Homo sapiens
How it was run: as §2

[5] = 24 h QPI, MCF-7, 4-parameter Hill fit of mean SGR vs concentration, one line per replicate

CC[C@]1(O)C[C@@H]2CN(CCc3c([nH]c4ccccc34)[C@@](C(=O)OC)(c3cc4c(cc3OC)N(C)[C@H]3[C@@](O)(C(=O)OC)[C@H](OC(C)=O)[C@]5(CC)C=CCN6CC[C@]43[C@@H]65)C2)C1 [Vinblastine]
Hill Slope (MCF-7 cells [1]; 72 h CTG, MCF-7, Hill fit): 0.2572 and 0.2217
log10(EC50) (MCF-7 cells [1]; 72 h CTG, MCF-7, Hill fit): 2.689
Min Asymptote (MCF-7 cells [1]; 72 h CTG, MCF-7, Hill fit of luminescence normalized to solvent control, one line per replicate): 4.32E−11 (2×) and 1.18E−11
EC50 (MCF-7 cells [1]; MCF7, 72 h, 72 h CTG, MCF-7, Hill fit, read-out: log10(EC50) (converted)): 2.15 nM
EC50 (MCF-7 cells [1]; MCF7, MCF-7 cell line, CellTiter-Glo, read-out: EC50, CTG (converted)): 1600 nM
DoR CTG (MCF-7 cells [1]; MCF-7 cell line, depth of response, CellTiter-Glo): 0.8
Max Asymptote (MDA-MB-231 cells; 24 h QPI): 0.02419 and 0.02824 and 0.03124
Min Asymptote (MDA-MB-231 cells; 24 h QPI): 0.0149 and 0.01503 and 0.01517
Max Asymptote (MDA-MB-231 cells; 72 h QPI): 0.007654 and 0.0105 and 0.007938
Min Asymptote (MDA-MB-231 cells; 72 h QPI): 0.03001 and 0.01871 and 0.03086
EC50 (MDA-MB-231 cells; EC50 of the standard deviation, read-out: EC50, SD (converted)): 14900 nM
EC50 (MDA-MB-231 cells; QPI growth rate, read-out: EC50, QPI): 400 nM
growth rate and heterogeneity over time (MDA-MB-231 cells; MDA-MB-231): decrease in growth rate and heterogeneity simultaneously
growth rate and heterogeneity over time (MDA-MB-231 cells; MDA-MB-231, 0.4 μM): decrease in growth rate and heterogeneity simultaneously
growth rate and heterogeneity over time (MDA-MB-231 cells; MDA-MB-231, 2 μM): decrease in growth rate and heterogeneity simultaneously
growth rate and heterogeneity over time (MDA-MB-231 cells; MDA-MB-231, 20 μM): decrease in growth rate and heterogeneity simultaneously
growth rate and heterogeneity as concentration increases (MDA-MB-231 cells; MDA-MB-231, FIG. 22): decrease in growth rate and heterogencity simultaneously
growth rate and heterogeneity over time (MDA-MB-231 cells; MDA-MB-231, lowest concentrations, FIG. 21 G-H): growth rate decreases over time with little change in heterogeneity
DoR QPI (MDA-MB-231 cells; MDA-MB-231 cell line, depth of response, QPI): 0.8
ToR 20 μM (MDA-MB-231 cells; MDA-MB-231 cell line, time of response at 20 μM): 4.7
Hill Slope (BT-474 cells [2]; 24 h CTG, BT-474, Hill fit): 0.3445
Min Asymptote (BT-474 cells [2]; 24 h CTG): 0.5659
Hill Slope (BT-474 cells [2]; 72 h CTG, BT-474, Hill fit): 0.1
Min Asymptote (BT-474 cells [2]; 72 h CTG): 0.06356
DoR CTG (BT-474 cells [2]; BT-474 cell line, depth of response, CellTiter-Glo): 1.0
EC50 (BT-474 cells [2]; BT-474, 24 h, 24 h CTG, BT-474, Hill fit, read-out: log10(EC50) (converted)): 1830 nM
EC50 (BT-474 cells [2]; BT-474, 72 h, 72 h CTG, BT-474, Hill fit, read-out: log10(EC50) (converted)): 7.66 nM
EC50 (BT-474 cells [2]; BT-474, BT-474 cell line, CellTiter-Glo, read-out: EC50, CTG): 6400 nM
Max Asymptote (BT-474 cells [3]; 24 h QPI): 0.007582
Min Asymptote (BT-474 cells [3]; 24 h QPI): −0.004812
Hill Slope (BT-474 cells [3]; 24 h QPI): 0.4052
Max Asymptote (BT-474 cells [3]; 72 h QPI): −0.001678 and −0.002248
Min Asymptote (BT-474 cells [3]; 72 h QPI): 0.002895 and 0.003538
Hill Slope (BT-474 cells [3]; 72 h QPI): 2.4178 and 1.3815
growth rate and heterogeneity over time (BT-474 cells [3]; BT-474, 0.0016 μM): decrease in growth rate at constant heterogeneity that is greater than the control
growth rate and heterogeneity over time (BT-474 cells [3]; BT-474, 0.016 μM): decreased growth rate and increased heterogeneity
growth rate and heterogeneity over time (BT-474 cells [3]; BT-474, 0.4 μM): reduced growth rate at the same level of heterogeneity as the control
average growth rate over time (BT-474 cells [3]; BT-474, 20 μM): slowly decreases over 12-60 h of treatment
growth rate and heterogeneity over time (BT-474 cells [3]; BT-474, 20 μM): decreases, while the heterogeneity for both populations increases
change of population spread (SD) of SGR (BT-474 cells [3]; BT-474, 20 μM, with significant decrease in mean response): no significant change to the spread
response of growth rate and heterogeneity to treatment (BT-474 cells [3]; BT-474, FIG. 5E, 22, 23): both reduced growth rate and slightly increased heterogeneity
growth rate and heterogeneity as concentration increases (BT-474 cells [3]; BT-474, FIG. 22): decrease in growth rate as concentration increases while heterogeneity remains constant
DoR QPI (BT-474 cells [3]; BT-474 cell line, depth of response, QPI): 2.8
ToR 20 μM (BT-474 cells [3]; BT-474 cell line, time of response at 20 μM): 4.9
EC50 (BT-474 cells [3]; BT-474, 24 h, read-out: log10(EC50), 24 h QPI, BT-474, Hill fit (converted), EC50 in μM per Table 1): 48.8 µM
EC50 (BT-474 cells [3]; BT-474, read-out: EC50, QPI, BT-474 cell line, QPI growth rate): 14.9 µM
Max Asymptote (MCF-7 cells [4]; [5]): 0.01958
Min Asymptote (MCF-7 cells [4]; [5]): 0.005796
Hill Slope (MCF-7 cells [4]; 24 h QPI): 3.2016
Min Asymptote (MCF-7 cells [4]; 72 h QPI, MCF-7, 4-parameter Hill fit of mean SGR vs concentration, one line per replicate): 0.01979 and 0.02842 and 0.02817
Hill Slope (MCF-7 cells [4]; 72 h QPI): 0.3759 and 0.3808 and 0.4308
EC50 (MCF-7 cells [4]; MCF7, 24 h, read-out: log10(EC50), 24 h QPI, MCF-7, Hill fit (converted), EC50 in μM per Table 1): 0.00154 µM
EC50 (MCF-7 cells [4]; MCF7, read-out: EC50, QPI, MCF-7 cell line, QPI growth rate): 0.3 µM
DoR QPI (MCF-7 cells [4]; MCF-7 cell line, depth of response, QPI): 0.4
ToR 20 μM (MCF-7 cells [4]; MCF-7 cell line, time of response at 20 μM): −3.0
